Consider nine compounds from patent US5834461A, “Tricyclic benzazepine vasopressin antagonists” (American Cyanamid Company, priority 1997, dated 1998).

The term Inhibition denotes the change of the read-out against control, counted positive when it falls. One may read the inhibition as the drop in the measured response relative to a control, in per cent. The term pIC50 denotes the negative decadic logarithm of the IC50, by convention in mol/L.

pIC50: −log10 of the molar value.

Assay [1] deals with vasopressin V1. Nature of the assay: Vasopressin V1 Antagonist Activity in Conscious Rats (vasopressin vasopressor response). In kind it is in vivo, rat (spontaneously hypertensive rats). The arrangement: Average Change: unit not given here. The method in brief: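 Conscious rats had the ventral caudal tail artery cannulated into the lower abdominal aorta under local procaine anesthesia, plus a caudal vein cannula for intravenous dosing. Pulsatile blood pressure was recorded via a Statham P23Db transducer. Vasopressor responses to vasopressin injections were measured before and after compound dosing, with percent antagonism calculated relative to the pre-drug response taken as 100%.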

Assay [2] deals with T1, oxytocin receptors (rat uterus membranes) (Rattus norvegicus, UniProt P70536).
T1 construct: The resulting pellet containing the oxytocin receptors is resuspended; from tissue; host or cells: uterus membranes of DES-treated female Sprague-Dawley rats
T1 sequence (P70536 1-388): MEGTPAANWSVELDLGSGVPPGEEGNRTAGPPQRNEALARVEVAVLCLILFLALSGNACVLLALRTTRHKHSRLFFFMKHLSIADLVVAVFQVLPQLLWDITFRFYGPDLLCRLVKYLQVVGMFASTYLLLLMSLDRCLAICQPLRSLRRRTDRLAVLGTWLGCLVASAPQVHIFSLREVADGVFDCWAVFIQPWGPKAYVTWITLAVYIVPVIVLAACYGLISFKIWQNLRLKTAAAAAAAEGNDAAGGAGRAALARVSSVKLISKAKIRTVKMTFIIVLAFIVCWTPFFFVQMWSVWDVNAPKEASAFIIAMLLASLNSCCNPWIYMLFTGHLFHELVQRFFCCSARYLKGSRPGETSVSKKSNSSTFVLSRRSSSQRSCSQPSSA
The assay can be described thus: Oxytocin Receptor Binding. The conditions noted are these: for pIC50: first part of Table V. The arrangement: species or system female Sprague-Dawley rats. The method in brief: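 Uterine membranes from DES-primed female Sprague-Dawley rats (0.3 mg/kg i.m., 18 h) were incubated with 1.0 nM [3H]oxytocin in 50 mM Tris.HCl pH 7.4, 5 mM MgCl2 plus protease inhibitors, 60 min at 22 °C. Bound ligand was separated by filtration; nonspecific binding was defined with 1.0 uM oxytocin, and IC50 was taken from displacement curves.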

The test system of assay [3] is vasopressin V2. The assay can be described thus: Vasopressin V2 Antagonist Activity in Conscious Hydrated Rats (diuretic effect). In kind it is in vivo, normal Sprague-Dawley rats. The conditions noted are these: AVP 0.4 μg/kg i.p. The method in brief:
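Conscious rats were dosed orally at 0.1–100 mg/kg, and AVP 0.4 μg/kg i.p. in peanut oil followed 1 h later. Urine volume, osmolality and Na/K/Cl were compared against AVP-treated controls, with non-AVP rats as water-loading controls.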

The mark [4] stands for this setting: 10 mg/kg i.v., VAS 0.01 i.u./kg, 30 min.
Where [5] appears, read: 10 mg/kg i.v., VAS 0.05 i.u./kg, 30 min.
Setting [6] is: 10 mg/kg i.v., VAS 0.1 i.u./kg, 30 min.
Where [7] appears, read: 20 mg/kg i.v., VAS 0.01 i.u./kg, 60 min.
Setting [8] is: 20 mg/kg i.v., VAS 0.01 i.u./kg, 300 min.
Where [9] appears, read: 20 mg/kg i.v., VAS 0.05 i.u./kg, 60 min.
Where [10] appears, read: 20 mg/kg i.v., VAS 0.05 i.u./kg, 90 min.
Setting [11] is: 20 mg/kg i.v., VAS 0.05 i.u./kg, 120 min.
Setting [12] is: 20 mg/kg i.v., VAS 0.05 i.u./kg, 180 min.
Where [13] appears, read: 20 mg/kg i.v., VAS 0.05 i.u./kg, 240 min.
[14] abbreviates: 20 mg/kg i.v., VAS 0.05 i.u./kg, 300 min.
The mark [15] stands for this setting: 20 mg/kg i.v., VAS 0.1 i.u./kg, 60 min.
[16] abbreviates: 20 mg/kg i.v., VAS 0.1 i.u./kg, 90 min.
[17] abbreviates: 20 mg/kg i.v., VAS 0.1 i.u./kg, 120 min.
The mark [18] stands for this setting: 20 mg/kg i.v., VAS 0.1 i.u./kg, 180 min.
[19] abbreviates: 20 mg/kg i.v., VAS 0.1 i.u./kg, 240 min.
Where [20] appears, read: 20 mg/kg i.v., VAS 0.1 i.u./kg, 300 min.
Setting [21] is: 50 mg/kg p.o., VAS 0.01 i.u./kg, 30 min.
[22] abbreviates: 50 mg/kg p.o., VAS 0.01 i.u./kg, 60 min.
[23] abbreviates: 50 mg/kg p.o., VAS 0.01 i.u./kg, 90 min.
[24] abbreviates: 50 mg/kg p.o., VAS 0.01 i.u./kg, 120 min.
The mark [25] stands for this setting: 50 mg/kg p.o., VAS 0.01 i.u./kg, 180 min.
The mark [26] stands for this setting: 50 mg/kg p.o., VAS 0.01 i.u./kg, 240 min.
Setting [27] is: 50 mg/kg p.o., VAS 0.02 i.u./kg, 30 min.
[28] abbreviates: 50 mg/kg p.o., VAS 0.02 i.u./kg, 60 min.
The mark [29] stands for this setting: 50 mg/kg p.o., VAS 0.02 i.u./kg, 90 min.
Setting [30] is: 50 mg/kg p.o., VAS 0.02 i.u./kg, 120 min.
Setting [31] is: 50 mg/kg p.o., VAS 0.02 i.u./kg, 180 min.
Where [32] appears, read: 50 mg/kg p.o., VAS 0.02 i.u./kg, 240 min.

Consider `Cc1ccccc1C(=O)Nc1ccc(C(=O)N2Cc3ccccc3-c3ccccc32)cc1` [Example 5, 2-Methyl-N-[4-[(5(6H)-phenanthridinyl)carbonyl]phenyl]benzamide], for which the “Average Change” value in assay [1] (setting [4]) came out at 35; in assay [1] (setting [5]) it was 30; in assay [1] (setting [6]), 35; in assay [1] (setting [7]), 17.5; in assay [1] (setting [8]) it was 30; in assay [1] (setting [9]), 10. For the same compound, the “Average Change” value came out at 10 in assay [1] (setting [10]); 15 in assay [1] (setting [11]); 12.5 in assay [1] (setting [12]); 17.5 in assay [1] (setting [13]); 22.5 in assay [1] (setting [14]); 17.5 in assay [1] (setting [15]). Further, the “Average Change” value was determined as 20 in assay [1] (setting [16]); 17.5 in assay [1] (setting [17]); 20 in assay [1] (setting [18]); 25 in assay [1] (setting [19]); 30 in assay [1] (setting [20]); 22.5 in assay [1] (setting [21]). For the same compound, the “Average Change” value amounted to 30 in assay [1] (setting [22]); 17.5 in assay [1] (setting [23]); 30 in assay [1] (setting [24]); 20 in assay [1] (setting [25]); 22.5 in assay [1] (setting [26]); 35 in assay [1] (setting [27]). Further, the “Average Change” value in assay [1] (setting [28]) is 35.5; in assay [1] (setting [29]), 32.5; in assay [1] (setting [30]), 40; in assay [1] (setting [31]), 37.5; in assay [1] (setting [32]), 38.5. Also, the Inhibition in assay [1] (setting [4]) is recorded as 22%; in assay [1] (setting [5]) it was -9%; in assay [1] (setting [6]) it was 22%; in assay [1] (setting [7]) it was 61%; in assay [1] (setting [8]) it was 33%; in assay [1] (setting [9]) it was 64%. The Inhibition in assay [1] (setting [10]) worked out at 64%; in assay [1] (setting [11]), 45%; in assay [1] (setting [12]) it was 55%; in assay [1] (setting [13]) it was 36%; in assay [1] (setting [14]), 18%; in assay [1] (setting [15]) it was 61%. Moreover, the Inhibition stood at 56% in assay [1] (setting [16]); 61% in assay [1] (setting [17]); 56% in assay [1] (setting [18]); 44% in assay [1] (setting [19]); 33% in assay [1] (setting [20]); 10% in assay [1] (setting [21]). Further, the Inhibition in assay [1] (setting [22]) is -20%; in assay [1] (setting [23]), 30%; in assay [1] (setting [24]), -20%; in assay [1] (setting [25]), 20%; in assay [1] (setting [26]), 10%; in assay [1] (setting [27]), 0%. The Inhibition in assay [1] (setting [28]) was 7%; in assay [1] (setting [29]), 7%; in assay [1] (setting [30]) it was -14%; in assay [1] (setting [31]), -7%; in assay [1] (setting [32]) it was -10%. Moreover, in assay [2], 10 µM produced 90% inhibition. The compound also gave a pIC50 in assay [2] of 5.70. This compound yielded an Osmolality in assay [3] (10 mg/kg orally) of 1137 mOsm/kg. Also, the “Urine Volume” value in assay [3] (10 mg/kg orally) is 2 ml/4 hrs.
As to `O=C(Nc1ccc(C(=O)N2Cc3ccccc3Cc3ccccc32)cc1)c1cc(Cl)cc(Cl)c1` [Example 251, N-(4-[(6,11-Dihydro-5H-dibenz[b,e]azepin-5-yl)-carbonyl]phenyl]-3,5-dichlorobenzamide], in assay [1] (30 mg/kg i.v.), the “MAX % Inhibition” value turned out to be 41% and the “Time of max % inhibition” value was 60 min. Moreover, testing at 10 µM in assay [2] gave an inhibition of 77%. For the same compound, in assay [3] (10 mg/kg orally), the Osmolality was found to be 835 mOsm/kg and the “Urine Volume” value was 7.5 ml/4 hrs.
As to `O=C(Nc1ccc(C(=O)N2Cc3ccccc3Cc3ccccc32)cc1)c1cccc(Cl)c1Cl` [Example 253, N-[4-[(6,11-Dihydro-5H-dibenz[b,e]azepin-5-yl)-carbonyl]phenyl]-2,3-dichlorobenzamide], in assay [1] (30 mg/kg i.v.), the “MAX % Inhibition” value turned out to be 57% and the “Time of max % inhibition” value turned out to be 180 min. In assay [2], this compound gave an inhibition at 10 µM of 77% and a pIC50 of 5.51. In addition, in assay [3] (10 mg/kg orally), the Osmolality is reported as 837 mOsm/kg and the “Urine Volume” value was 6 ml/4 hrs.
For `O=C(Nc1ccc(C(=O)N2Cc3ccccc3Cc3ccccc32)cc1)C1CC=CCC1` (centres unmarked) [Example 255, N-[4-[(6,11-Dihydro-5H-dibenz[b,e]azepin-5-yl)-carbonyl]phenyl]-3-cyclohexene-1-carboxamide], in assay [1] (10 mg/kg i.v.), the “MAX % Inhibition” value is listed as 65% and the “Time of max % inhibition” value was found to be 60 min. In assay [2], this compound showed an inhibition at 10 µM of 99% and a pIC50 of 6.34. Besides, in assay [3] (30 mg/kg orally), the Osmolality stood at 1456 mOsm/kg and the “Urine Volume” value is 2.3 ml/4 hrs.
As to `COc1cc(C(=O)N2Cc3ccccc3Cc3ccccc32)ccc1NC(=O)c1ccccc1C` [Example 257, N-[4-[(6,11-Dihydro-5H-dibenz[b,e]azepin-5-yl)-carbonyl]-2-methoxyphenyl]-2-methylbenzamide], in assay [1] (10 mg/kg i.v.), the “MAX % Inhibition” value is listed as 71% and the “Time of max % inhibition” value came out at 60 min. In assay [2], this compound had an inhibition at 10 µM of 97% and a pIC50 of 6.72. In assay [3] (10 mg/kg orally), the Osmolality is 434 mOsm/kg and the “Urine Volume” value is given as 11.8 ml/4 hrs.
Consider `Cc1cc(C(=O)N2Cc3ccccc3Cc3ccccc32)cc(C)c1NC(=O)c1ccc(Cl)cc1Cl` [Example 259, N-[4-[(6,11-Dihydro-5H-dibenz[b,e]azepin-5-yl)-carbonyl]-2,6-dimethylphenyl]-2 4-dichlorobenzamide], for which, in assay [1] (30 mg/kg i.v.), the “MAX % Inhibition” value is given as 29% and the “Time of max % inhibition” value is 90 min. In assay [2], this compound displayed an inhibition at 10 µM of 7%. In assay [3] (10 mg/kg orally), the Osmolality was found to be 1080 mOsm/kg and the “Urine Volume” value was 6 ml/4 hrs.
Taken in the same sequence, the figures for `Cc1ccccc1C(=O)Nc1ccc(C(=O)N2Cc3ccccc3Cc3ccccc32)c(Cl)c1` [Example 260, N-[4-[(6,11-Dihydro-5H-dibenz[b,e]azepin-5-yl)-carbonyl]-3-chlorophenyl]-2-methylbenzamide] were 79%, 120 min, 44%, 498 ± 25 mOsm/kg and 13.8 ± 2.1 ml/4 hrs.
For the compound `COc1cc(C(=O)N2Cc3ccccc3Cc3ccccc32)ccc1NC(=O)c1cc(F)ccc1C` [Example 261, N-[4-[(6,11-Dihydro-5H-dibenz[b,e]azepin-5-yl)-carbonyl]-2-methoxyphenyl]-2-methyl-5-fluorobenzamide], in assay [1] (10 mg/kg i.v.), the “MAX % Inhibition” value worked out at 74% and the “Time of max % inhibition” value is 60 min. In assay [2], this compound gave an inhibition at 10 µM of 97% and a pIC50 of 6.68. For the same compound, in assay [3] (10 mg/kg orally), the Osmolality is 1337 mOsm/kg and the “Urine Volume” value stood at 3.8 ml/4 hrs.
As for `Cc1ccccc1C(=O)N(CN(C)C)c1ccc(C(=O)N2Cc3ccccc3Cc3ccccc32)cc1` [Example 267, N-[4-[(6,11-Dihydro-5H-dibenz[b,e]azepin-5-yl)-carbonyl]phenyl]-N-[(dimethylamino)methyl]-2-methylbenzamide], in assay [1] (10 mg/kg i.v.), the “MAX % Inhibition” value is 74% and the “Time of max % inhibition” value came to 120 min. In assay [2], the inhibition at 10 µM was found to be 89% and the negative logarithm of the IC50 (pIC50) is 5.96. In assay [3] (10 mg/kg orally), the Osmolality is given as 517 mOsm/kg and the “Urine Volume” value is 7.5 ml/4 hrs.
